# From PubChem BioAssay (NCI)
#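 A five-concentration, 48-hour dose response in 96-well plates underlies each endpoint, interpolated linearly between surrounding concentrations. TGI: concentration producing complete growth inhibition.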
# Tests used:
# Assay in all cases: NCI tumour cell line growth inhibition, 48 h
# [1] = test system: SF-268 CNS
# [2] = test system: M14 melanoma
# [3] = test system: HCT-116 colon
# [4] = test system: HOP-62 NSCLC
# [5] = test system: K-562 leukemia
# [6] = test system: UACC-62 melanoma
# [7] = test system: RXF 393 renal
# [8] = test system: TK-10 renal
# [9] = test system: SR leukemia
# [10] = test system: HCC-2998 colon
# [11] = test system: XF 498 CNS
# [12] = test system: CAKI-1 renal
# [13] = test system: MOLT-4 leukemia
# [14] = test system: KM12 colon
# [15] = test system: SK-MEL-5 melanoma
# [16] = test system: RPMI-8226 leukemia
# [17] = test system: U251 CNS
# [18] = test system: HT29 colon
# [19] = test system: ACHN renal
# [20] = test system: SNB-75 CNS
# [21] = test system: KM20L2 colon
# [22] = test system: SN12C renal
# [23] = test system: HOP-92 NSCLC
# [24] = test system: HCT-15 colon
# [25] = test system: OVCAR-3 ovarian
# [26] = test system: NCI-H23 lung
# [27] = test system: SNB-78 CNS
# [28] = test system: HL-60(TB) leukemia
# [29] = test system: SF-539 CNS
# [30] = test system: SW-620 colon
# [31] = test system: M19-MEL melanoma
# [32] = test system: SK-OV-3 ovarian
# [33] = test system: A549 NSCLC
# [34] = test system: SK-MEL-2 melanoma
# [35] = test system: OVCAR-8 ovarian
# [36] = test system: EKVX NSCLC
# [37] = test system: NCI-H522 lung
# [38] = test system: MALME-3M melanoma
# [39] = test system: SF-295 CNS
# [40] = test system: DMS 273 small cell lung
# [41] = test system: COLO 205 colon
# [42] = test system: DMS 114 small cell lung
# [43] = test system: UACC-257 melanoma
# [44] = test system: 786-0 renal
# [45] = test system: SK-MEL-28 melanoma
# [46] = test system: CCRF-CEM leukemia
# [47] = test system: SNB-19 CNS
# [48] = test system: IGROV1 ovarian
# [49] = test system: OVCAR-5 ovarian
# [50] = test system: DLD-1 colon
# [51] = test system: HOP-18 NSCLC
# [52] = test system: NCI-H226 lung
# [53] = test system: LXFL 529 NSCLC
# [54] = test system: LOX IMVI melanoma
# [55] = test system: NCI-H460 lung
# [56] = test system: OVCAR-4 ovarian
# [57] = test system: A498 renal
# [58] = test system: UO-31 renal
smiles,measurement,setting,value
CC(=O)OCC1OC(n2c(O)c(N=NC(N)=S)c3ccc([N+](=O)[O-])cc32)C(OC(C)=O)C1OC(C)=O (centres undefined),TGI,[1],> 100 µM
same,TGI,[2],> 100 µM
same,TGI,[3],29.5 µM
same,TGI,[4],> 100 µM
same,TGI,[5],> 100 µM
same,TGI,[6],27.6 µM
same,TGI,[7],45.9 µM
same,TGI,[8],> 100 µM
same,TGI,[9],60.2 µM
same,TGI,[10],65.6 µM
same,TGI,[11],94.7 µM
same,TGI,[12],> 100 µM
same,TGI,[13],54.9 µM
same,TGI,[14],> 100 µM
same,TGI,[15],> 100 µM
same,TGI,[16],> 100 µM
same,TGI,[17],87.6 µM
same,TGI,[18],96.2 µM
same,TGI,[19],> 100 µM
same,TGI,[20],82.8 µM
same,TGI,[21],> 100 µM
same,TGI,[22],> 100 µM
same,TGI,[23],> 100 µM
same,TGI,[24],> 100 µM
same,TGI,[25],63.9 µM
same,TGI,[26],42.1 µM
same,TGI,[27],> 100 µM
same,TGI,[28],62.7 µM
same,TGI,[29],70.2 µM
same,TGI,[30],> 100 µM
same,TGI,[31],38.3 µM
same,TGI,[32],> 100 µM
same,TGI,[33],> 100 µM
same,TGI,[34],47.2 µM
same,TGI,[35],43.1 µM
same,TGI,[36],> 100 µM
same,TGI,[37],31.4 µM
same,TGI,[38],> 100 µM
same,TGI,[39],> 100 µM
same,TGI,[40],57.5 µM
same,TGI,[41],> 100 µM
same,TGI,[42],61.9 µM
same,TGI,[43],> 100 µM
same,TGI,[44],44.4 µM
same,TGI,[45],> 100 µM
same,TGI,[46],64.8 µM
same,TGI,[47],> 100 µM
same,TGI,[48],> 100 µM
same,TGI,[49],> 100 µM
same,TGI,[50],> 100 µM
same,TGI,[51],> 100 µM
same,TGI,[52],84.7 µM
same,TGI,[53],> 100 µM
same,TGI,[54],43.1 µM
same,TGI,[55],66.2 µM
same,TGI,[56],43.3 µM
C[Si](C)(C)/C=C/CN1C(=O)CCC1=O,TGI,[1],> 100 µM
same,TGI,[2],> 100 µM
same,TGI,[3],> 100 µM
same,TGI,[5],> 100 µM
same,TGI,[6],> 100 µM
same,TGI,[8],> 100 µM
same,TGI,[9],> 100 µM
same,TGI,[10],> 100 µM
same,TGI,[11],> 100 µM
same,TGI,[14],> 100 µM
same,TGI,[15],> 100 µM
same,TGI,[16],> 100 µM
same,TGI,[17],> 100 µM
same,TGI,[18],> 100 µM
same,TGI,[19],> 100 µM
same,TGI,[20],> 100 µM
same,TGI,[21],> 100 µM
same,TGI,[22],> 100 µM
same,TGI,[23],> 100 µM
same,TGI,[24],> 100 µM
same,TGI,[25],> 100 µM
same,TGI,[26],> 100 µM
same,TGI,[27],> 100 µM
same,TGI,[57],> 100 µM
same,TGI,[28],> 100 µM
same,TGI,[58],> 100 µM
same,TGI,[29],> 100 µM
same,TGI,[30],> 100 µM
same,TGI,[31],> 100 µM
same,TGI,[32],> 100 µM
same,TGI,[33],> 100 µM
same,TGI,[34],> 100 µM
same,TGI,[36],> 100 µM
same,TGI,[37],> 100 µM
same,TGI,[38],> 100 µM
same,TGI,[40],> 100 µM
same,TGI,[41],> 100 µM
same,TGI,[42],> 100 µM
same,TGI,[45],> 100 µM
same,TGI,[46],> 100 µM
same,TGI,[47],> 100 µM
same,TGI,[48],> 100 µM
same,TGI,[49],> 100 µM
same,TGI,[50],> 100 µM
same,TGI,[51],> 100 µM
same,TGI,[53],> 100 µM
same,TGI,[54],> 100 µM
same,TGI,[55],> 100 µM
